In test [1] the target is T1, GKRP (Glucokinase Regulatory Protein) with human His-hepatic GK (Homo sapiens, UniProt Q14397).
T1 sequence (Q14397 1-625): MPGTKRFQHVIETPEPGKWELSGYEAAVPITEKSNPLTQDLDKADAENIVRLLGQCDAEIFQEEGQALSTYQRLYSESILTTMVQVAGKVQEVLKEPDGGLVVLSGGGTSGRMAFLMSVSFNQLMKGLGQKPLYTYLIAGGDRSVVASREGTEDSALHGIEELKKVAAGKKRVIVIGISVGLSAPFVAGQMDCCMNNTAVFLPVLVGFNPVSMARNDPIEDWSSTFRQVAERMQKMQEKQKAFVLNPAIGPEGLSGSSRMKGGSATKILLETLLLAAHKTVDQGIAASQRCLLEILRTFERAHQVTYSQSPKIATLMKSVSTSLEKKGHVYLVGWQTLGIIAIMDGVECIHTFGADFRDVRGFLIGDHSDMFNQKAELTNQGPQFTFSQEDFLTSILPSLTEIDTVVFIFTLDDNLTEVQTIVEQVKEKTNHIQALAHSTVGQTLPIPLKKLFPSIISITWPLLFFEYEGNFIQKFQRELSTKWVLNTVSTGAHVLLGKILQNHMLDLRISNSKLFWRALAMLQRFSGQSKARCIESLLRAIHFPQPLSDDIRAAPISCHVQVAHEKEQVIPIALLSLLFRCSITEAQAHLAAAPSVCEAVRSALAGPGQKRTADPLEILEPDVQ
The experiment in a line: GKRP NADPH Coupled Assay. It counts as biochemical. Particulars: GK-GKRP EC50 (NADPH-coupled), indirect measure of glucose-6-phosphate, fluorescence; 1 μM GKRP (10×), 20 nM GK (5×). The gist of the method: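 Human His-hepatic GK (5× stock 20 nM) in 50 mM Tris pH 7.5, 4 mM MgCl2, 6% DMSO, 0.1% BSA, 0.01% Brij-35, with GKRP and compound preincubated 30 min, then reaction 1 h at RT. Glucose-6-phosphate read indirectly via G6P dehydrogenase-coupled NADPH formation from β-NADP (2× stop/detection reagent, pH 9.2, 5 min).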

Test [2] has as its target T1, GKRP (Glucokinase Regulatory Protein) with human His-hepatic GK. The experiment in a line: GKRP LC MS/MS Biochemical Assay. Conditions: GK-GKRP EC50 (LC MS/MS), 13C-glucose-6-phosphate formation; 1 μM GKRP (10×), 30 nM GK (5×). The gist of the method:
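Human His-hepatic GK (working stock 30 nM, 5×) with GKRP in 50 mM Tris pH 7.5, 4 mM MgCl2, 6% DMSO, DTT, BSA and Brij-35. After a 30 min preincubation, GK was added and the reaction ran 30 min at room temperature. Stopped with acetonitrile; 13C-glucose-6-phosphate formed from 13C-glucose quantified by LC MS/MS.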

SMILES strings stand for the structures. pEC50: −log10 of the molar value. Where a name gives a salt, the structure may show the parent alone.

On to `O=S(=O)(c1ccccc1)c1ccc(-c2ccc(C(O)(C(F)(F)F)C(F)(F)F)cn2)cc1` [Example 17, 1,1,1,3,3,3-hexafluoro-2-(6-(4-(phenylsulfonyl)phenyl)-3-pyridinyl)-2-propanol], for which the pEC50 (commonly the negative decadic logarithm of the EC50, by convention in mol/L) in test [1] was 5.79; in test [2], 5.77.

In the case of `O=S(=O)(c1cccs1)N1CCN(c2ccc(C(O)(C(F)(F)F)C(F)(F)F)cc2-c2cccc(F)c2)CC1` [Example 71, 1,1,1,3,3,3-hexafluoro-2-(3′-fluoro-6-(4-(2-thiophenylsulfonyl)-1-piperazinyl)-3-biphenylyl)-2-propanol], the pEC50 in test [1] was 5.44; in test [2] it was 5.74.

With `C[C@H]1COCCN1C[C@H]1CN(S(=O)(=O)c2cccs2)CCN1c1ccc([C@@](C)(O)C(F)(F)F)cc1` [Example 45 Peak #2, 1,1,1-trifluoro-2-(4-((2S)-2-(((3S)-3-methyl-4-morpholinyl)methyl)-4-(2-thiophenylsulfonyl)-1-piperazinyl)phenyl)-2-propanol], the negative logarithm of the EC50 (pEC50) in test [1] was 7.17; in test [2], 7.15.

For the compound `O=S(=O)(c1ccccn1)N1CCN(c2ccc(C(O)(C(F)(F)F)C(F)(F)F)cc2)CC1` [Example 7, 1,1,1,3,3,3-hexafluoro-2-(4-(4-(2-pyridinylsulfonyl)-1-piperazinyl)phenyl)-2-propanol], the pEC50 in test [1] was 5.42; in test [2], 5.48.

As to `Cn1ccc(S(=O)(=O)N2CCN(c3ccc(C(O)(C(F)(F)F)C(F)(F)F)cc3)CC2)n1` [Example 5, 1,1,1,3,3,3-hexafluoro-2-(4-(4-((1-methyl-1H-pyrazol-3-yl)sulfonyl)-1-piperazinyl)phenyl)-2-propanol], the pEC50 in test [1] is 5.80; in test [2] it was 5.27.

As for `CC1CN(CC2CN(S(=O)(=O)c3cccs3)CCN2c2ccc(C(C)(O)C(F)(F)F)cc2)CCO1` (mixture of isomers) [Example 49, 1,1,1-trifluoro-2-(4-(2-((2-methyl-4-morpholinyl)methyl)-4-(2-thiophenylsulfonyl)-1-piperazinyl)phenyl)-2-propanol], the pEC50 in test [1] was 6.19; in test [2], 6.15.

As for `C[C@H]1CN(S(=O)(=O)c2ccccc2)CCN1c1ccc(C(O)(C(F)(F)F)C(F)(F)F)cc1` [Example 12, 1,1,1,3,3,3-hexafluoro-2-(4-((2S)-2-methyl-4-(phenylsulfonyl)-1-piperazinyl)phenyl)-2-propanol], the values for the pEC50 in test [1] and in test [2] were 6.09 and 6.05, respectively.

Regarding `CC(O)(c1ccc(N2CCN(S(=O)(=O)c3cccs3)CC2COCc2ccccc2)cc1)C(F)(F)F` (mixture of isomers) [Example 44 Step 5, 2-(4-(2-((benzyloxy)methyl)-4-(2-thiophenylsulfonyl)-1-piperazinyl)phenyl)-1,1,1-trifluoro-2-propanol], the figures for the negative logarithm of the EC50 (pEC50) in test [1] and in test [2] were 6.38 and 6.21, respectively.

On to `O=S(=O)(c1ccccc1F)N1CCN(c2ccc(C(O)(C(F)(F)F)C(F)(F)F)cc2)CC1` [Example 6, 1,1,1,3,3,3-hexafluoro-2-(4-(4-((2-fluorophenyl)sulfonyl)-1-piperazinyl)phenyl)-2-propanol], for which the values for the negative-log EC50 (pEC50) in test [1] and in test [2] were 5.73 and 5.82, respectively.

As for `CC(O)(c1ccc(N2CCN(S(=O)(=O)c3cccs3)CC2CN2CCC(F)(F)CC2)cc1)C(F)(F)F` (mixture of isomers) [Example 51, 2-(4-(2-((4,4-difluoro-1-piperidinyl)methyl)-4-(2-thiophenylsulfonyl)-1-piperazinyl)phenyl)-1,1,1-trifluoro-2-propanol], the results for the pEC50 in test [1] and in test [2] were 5.98 and 5.82, respectively.

`CC(O)(c1ccc(N2CCN(S(=O)(=O)c3cccs3)CC2Cc2ccc(F)cc2)cc1)C(F)(F)F` (mixture of isomers) [Example 40, 1,1,1-trifluoro-2-(4-(2-(4-fluorobenzyl)-4-(2-thiophenylsulfonyl)-1-piperazinyl)phenyl)-2-propanol]: the pEC50 in test [1] was 6.05; in test [2], 5.90.

`O=S(=O)(c1ccccc1)N1CCN(c2ccc(C(O)(C3CC3)C(F)(F)F)cc2)CC1` (racemic) [Example 15, 1-cyclopropyl-2,2,2-trifluoro-1-(4-(4-(phenylsulfonyl)-1-piperazinyl)phenyl)ethanol]: the values for the pEC50 in test [1] and in test [2] were 5.58 and 5.56, respectively.

Turning to `CC(O)(c1ccc(N2CCN(S(=O)(=O)c3cccs3)CC2CN2CC(O)C2)cc1)C(F)(F)F` (mixture of isomers) [Example 53, 1-((4-(2-thiophenylsulfonyl)-1-(4-(2,2,2-trifluoro-1-hydroxy-1-methylethyl)phenyl)-2-piperazinyl)methyl)-3-azetidinol], the pEC50 in test [1] is 5.65; in test [2] it was 5.75.

Turning to `O=S(=O)(c1c[nH]cn1)N1CCN(c2ccc(C(O)(C(F)(F)F)C(F)(F)F)cc2)CC1` [Example 60, 1,1,1,3,3,3-hexafluoro-2-(4-(4-(1H-imidazol-4-ylsulfonyl)-1-piperazinyl)phenyl)-2-propanol], the pEC50 in test [1] and in test [2] was 5.63 throughout.

Turning to `CC(O)(c1ccc(-c2ccc(S(=O)(=O)c3ccccc3)c(Cl)c2)cc1)C(F)(F)F` (racemic) [Example 19, 2-(3′-chloro-4′-(phenylsulfonyl)-4-biphenylyl)-1,1,1-trifluoro-2-propanol], the pEC50 was 5.45 in test [1] and 5.37 in test [2].

For `Cc1cccc(CC2CN(S(=O)(=O)c3cccs3)CCN2c2ccc(C(O)(C(F)(F)F)C(F)(F)F)cc2)c1` (racemic) [Example 42, 1,1,1,3,3,3-hexafluoro-2-(4-(2-(3-methylbenzyl)-4-(2-thiophenylsulfonyl)-1-piperazinyl)phenyl)-2-propanol hydrochloride], the negative logarithm of the EC50 (pEC50) in test [1] was 6.14; in test [2] it was 6.16.

As to `CC(O)(c1ccc(-c2ccc(S(=O)(=O)c3ccccc3)c(Cl)c2)nc1)C(F)(F)F` (racemic) [Example 18, 2-(6-(3-chloro-4-(phenylsulfonyl)phenyl)-3-pyridinyl)-1,1,1-trifluoro-2-propanol], the pEC50 in test [1] was 5.43; in test [2] it was 5.45.

Take `O=S(=O)(c1ccccc1)N1CCN(c2ccc(C(O)(C(F)(F)F)C(F)(F)F)cc2)CC1` [Example 2, 1,1,1,3,3,3-hexafluoro-2-(4-(4-(phenylsulfonyl)-1-piperazinyl)phenyl)-2-propanol]: the pEC50 in test [1] was 6.10; in test [2], 5.96.

Take `O=S(=O)(c1cccs1)N1CCN(c2ccc(C(O)(C(F)(F)F)C(F)(F)F)cc2-c2ccccc2)CC1` [Example 69, 1,1,1,3,3,3-hexafluoro-2-(6-(4-(2-thiophenylsulfonyl)-1-piperazinyl)-3-biphenylyl)-2-propanol trifluoroacetate]: the pEC50 in test [1] was 5.67; in test [2] it was 5.76.

Regarding `O=S(=O)(c1cccs1)N1CCN(c2ccc(C(O)(C(F)(F)F)C(F)(F)F)cc2)[C@@H](Cc2ccccc2)C1` [Example 64, 2-(4-((2S)-2-benzyl-4-(2-thiophenylsulfonyl)-1-piperazinyl)phenyl)-1,1,1,3,3,3-hexafluoro-2-propanol], the pEC50 in test [1] is 6.51; in test [2], 6.11.

For the compound `CN(Cc1ccccc1)CC1CN(S(=O)(=O)c2cccs2)CCN1c1ccc(C(C)(O)C(F)(F)F)cc1` (mixture of isomers) [Example 62, 2-(4-(2-((benzyl(methyl)amino)methyl)-4-(2-thiophenylsulfonyl)-1-piperazinyl)phenyl)-1,1,1-trifluoro-2-propanol], the pEC50 is 6.00 in test [1] and 5.91 in test [2].

Regarding `Cc1ccc(CC2CN(S(=O)(=O)c3cccs3)CCN2c2ccc(C(O)(C(F)(F)F)C(F)(F)F)cc2)cc1` (racemic) [Example 43, 1,1,1,3,3,3-hexafluoro-2-(4-(2-(4-methylbenzyl)-4-(2-thiophenylsulfonyl)-1-piperazinyl)phenyl)-2-propanol hydrochloride], the figures for the pEC50 in test [1] and in test [2] were 5.60 and 5.58, respectively.

For the compound `CC(O)(c1ccc(N2CCN(S(=O)(=O)c3cccs3)C[C@@H]2Cc2ccccc2)cc1)C(F)(F)F` (single isomer, unassigned) [Example 65 Peak #1], the pEC50 in test [1] is 6.44; in test [2], 6.19.

On to `CC(O)(c1ccc(N2CCN(S(=O)(=O)c3cccs3)CC2COCc2cccnc2)cc1)C(F)(F)F` (mixture of isomers) [Example 59, 1,1,1-trifluoro-2-(4-(2-((3-pyridinylmethoxy)methyl)-4-(2-thiophenylsulfonyl)-1-piperazinyl)phenyl)-2-propanol], for which the pEC50 in test [1] and in test [2] was 5.31 throughout.
